According to paper PMC6572064, “Discovery of 2-(1-(3-(4-Chloroxyphenyl)-3-oxo- propyl)pyrrolidine-3-yl)-1H-benzo[d]imidazole-4-carboxamide: A Potent Poly(ADP-ribose) Polymerase (PARP) Inhibitor for Treatment of Cancer” (Molecules, 2019):
Like-named read-outs stand apart in the source and are kept apart here.

Key:
[1] = target: T1, PARP-1 (Homo sapiens, UniProt P09874); test: PARP-1 inhibition assay (PARP-1 Chemiluminescent Assay Kit, BPS Bioscience); type: biochemical; conditions: for inhibition at 0.01 µM: 10 nM compound
T1 construct: purchased BPS Bioscience 80569
Description: (§1) The PARP-1 and PARP-2 inhibition assays were performed in outsourcing, by a CRO company, Shanghai Medicilon Inc. (Shanghai, China). […] Briefly, PARP-1 or PARP-2 biotinylated substrate was incubated with compounds or solvent control at varying concentrations and an assay buffer containing the PARP-1 or PARP-2 enzyme.

[2] = target: T2, PARP-2 (Homo sapiens, UniProt Q9UGN5); test: PARP-2 inhibition assay (PARP-2 Chemiluminescent Assay Kit, BPS Bioscience); type: biochemical; conditions: for inhibition at 0.01 µM: 10 nM compound
T2 construct: purchased BPS Bioscience 80552
Description: as §1

[3] = system: MDA-MB-436 (a BRCA-1-mutated breast cancer cell line); test: Cell proliferation assay, three-day, CellTiter-Glo, MDA-MB-436; type: cell-based; conditions: for inhibition at 0.00508 µM / inhibition at 0.0152 µM / inhibition at 0.0457 µM / inhibition at 0.41 µM / inhibition at 1.23 µM / inhibition at 3.7 µM / inhibition at 11.11 µM / inhibition at 33.33 µM / inhibition at 100 µM / IC50: Homo sapiens; for inhibition at 0.00508 µM: MDA-MB-436, MDA-MB-436, Conc. 0.00508 uM; for inhibition at 0.0152 µM: MDA-MB-436, MDA-MB-436, Conc. 0.0152 uM; for inhibition at 0.0457 µM: MDA-MB-436, MDA-MB-436, Conc. 0.0457 uM; for inhibition at 0.41 µM: MDA-MB-436, MDA-MB-436, Conc. 0.41 uM; for inhibition at 1.23 µM: MDA-MB-436, MDA-MB-436, Conc. 1.23 uM; for inhibition at 3.7 µM: MDA-MB-436, MDA-MB-436, Conc. 3.70 uM; for inhibition at 11.11 µM: MDA-MB-436, MDA-MB-436, Conc. 11.11 uM; for inhibition at 33.33 µM: MDA-MB-436, MDA-MB-436, Conc. 33.33 uM; for inhibition at 100 µM: MDA-MB-436, MDA-MB-436, Conc. 100.00 uM
Procedure, shortened: (§2)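 Cells seeded overnight in 384-well plates, then exposed to compounds (DMSO stock diluted in medium) for 72 h at 37 °C, 5% CO2. Viability read as CellTiter-Glo luminescence after 60 min at room temperature.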

[4] = system: CAPAN-1 (a BRCA-2-mutated pancreatic cancer cell line); test: Cell proliferation assay, three-day, CellTiter-Glo, CAPAN-1; type: cell-based; conditions: for IC50 / inhibition at 0.00508 µM / inhibition at 0.0152 µM / inhibition at 0.0457 µM / inhibition at […] / inhibition at 0.41 µM / inhibition at 1.23 µM / inhibition at 3.7 µM / inhibition at 11.11 µM / inhibition at 33.33 µM / inhibition at 100 µM: Homo sapiens; for inhibition at 0.00508 µM: CAPAN-1, 0.00508 uM; for inhibition at 0.0152 µM: CAPAN-1, 0.0152 uM; for inhibition at 0.0457 µM: CAPAN-1, 0.0457 uM; for inhibition at […]: CAPAN-1, 0.14 uM; for inhibition at 0.41 µM: CAPAN-1, 0.41 uM; for inhibition at 1.23 µM: CAPAN-1, 1.23 uM; for inhibition at 3.7 µM: CAPAN-1, 3.70 uM; for inhibition at 11.11 µM: CAPAN-1, 11.11 uM; for inhibition at 33.33 µM: CAPAN-1, 33.33 uM; for inhibition at 100 µM: CAPAN-1, 100.00 uM
Procedure, shortened: as §2

T1 sequence (P09874 whole entry): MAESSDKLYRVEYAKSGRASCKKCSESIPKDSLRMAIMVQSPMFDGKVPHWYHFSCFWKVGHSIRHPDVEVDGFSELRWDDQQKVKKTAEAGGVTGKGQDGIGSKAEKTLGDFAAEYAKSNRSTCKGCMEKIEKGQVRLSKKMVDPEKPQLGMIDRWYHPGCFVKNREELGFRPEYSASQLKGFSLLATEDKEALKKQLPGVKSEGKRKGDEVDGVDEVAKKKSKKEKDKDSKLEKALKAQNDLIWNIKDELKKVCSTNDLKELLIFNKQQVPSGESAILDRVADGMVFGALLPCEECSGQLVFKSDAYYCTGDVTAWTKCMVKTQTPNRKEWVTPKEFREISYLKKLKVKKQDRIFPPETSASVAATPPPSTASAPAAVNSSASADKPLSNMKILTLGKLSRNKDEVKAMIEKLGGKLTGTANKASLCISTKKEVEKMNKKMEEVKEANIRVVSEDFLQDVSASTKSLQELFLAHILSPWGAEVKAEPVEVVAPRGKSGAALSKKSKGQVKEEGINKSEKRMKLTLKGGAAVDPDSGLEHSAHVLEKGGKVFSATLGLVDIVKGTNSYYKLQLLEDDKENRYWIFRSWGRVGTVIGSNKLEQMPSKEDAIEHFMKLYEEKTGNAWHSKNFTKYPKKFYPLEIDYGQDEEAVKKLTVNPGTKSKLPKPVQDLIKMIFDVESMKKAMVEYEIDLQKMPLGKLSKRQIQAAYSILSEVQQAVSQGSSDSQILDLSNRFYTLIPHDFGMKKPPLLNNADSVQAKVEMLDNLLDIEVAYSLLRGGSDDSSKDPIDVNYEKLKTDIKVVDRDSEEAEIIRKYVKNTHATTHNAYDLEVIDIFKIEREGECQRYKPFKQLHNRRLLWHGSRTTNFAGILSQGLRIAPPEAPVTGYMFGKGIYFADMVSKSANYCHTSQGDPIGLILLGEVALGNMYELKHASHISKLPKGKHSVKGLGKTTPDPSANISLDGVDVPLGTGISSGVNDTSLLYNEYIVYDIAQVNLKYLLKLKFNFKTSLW
T2 sequence (Q9UGN5 whole entry): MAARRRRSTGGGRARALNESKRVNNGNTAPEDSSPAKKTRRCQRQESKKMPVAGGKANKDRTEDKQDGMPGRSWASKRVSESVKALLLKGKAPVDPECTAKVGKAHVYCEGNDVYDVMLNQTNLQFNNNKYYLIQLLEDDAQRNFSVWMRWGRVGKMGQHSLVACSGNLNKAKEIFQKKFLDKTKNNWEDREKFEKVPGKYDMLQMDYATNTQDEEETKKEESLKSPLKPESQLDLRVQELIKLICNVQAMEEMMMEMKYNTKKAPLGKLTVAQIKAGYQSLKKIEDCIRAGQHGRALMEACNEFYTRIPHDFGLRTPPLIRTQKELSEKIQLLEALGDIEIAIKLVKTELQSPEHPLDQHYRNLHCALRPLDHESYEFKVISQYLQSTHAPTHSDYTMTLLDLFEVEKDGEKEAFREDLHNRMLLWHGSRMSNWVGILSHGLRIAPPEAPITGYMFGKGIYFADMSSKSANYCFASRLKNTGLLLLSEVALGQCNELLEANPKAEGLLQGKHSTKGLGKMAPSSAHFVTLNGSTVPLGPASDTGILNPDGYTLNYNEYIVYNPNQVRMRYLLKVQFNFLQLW

## COc1ccc(C(=O)CCN2CCC(c3nc4c(C(N)=O)cccc4[nH]3)C2)cc1 (centres unmarked) [Compound 5ci, 2-(1-(3-(4-Methoxyphenyl)-3-oxopropyl)pyrrolidin-3-yl)-1H-benzo[d]imidazole-4-carboxamide]
[1]; supplement sheet, read-out: 10 nM inhibition% PAPR-1
  inhibition at 0.01 µM: 59.2%
[1]; read-out: PARP-1 Inhibition % (10 nM)
  inhibition at 0.01 µM: 59.2%
[1]; read-out: PARP-1 IC50
  IC50: 0.0059 µM
[1]; supplement sheet, read-out: IC50 PAPR-1
  IC50: 0.00586 µM
[2]; supplement sheet, read-out: 10 nM inhibition% PAPR-2
  inhibition at 0.01 µM: 62.5%
[2]; read-out: PARP-2 Inhibition % (10 nM)
  inhibition at 0.01 µM: 62.5%
[2]; read-out: PARP-2 IC50
  IC50: 0.0045 µM
[2]; supplement sheet, read-out: IC50 PAPR-2
  IC50: 0.00452 µM
[3]; replicate 1, read-out: Inh % 1
  inhibition at 0.00508 µM: -3.7%
  inhibition at 0.0152 µM: -0.252%
  inhibition at 0.0457 µM: -8.5%
  inhibition at 0.41 µM: -19.2%
  inhibition at 1.23 µM: -9.5%
  inhibition at 3.7 µM: -10.7%
  inhibition at 11.11 µM: -13.6%
  inhibition at 33.33 µM: 7.8%
  inhibition at 100 µM: 89.3%
[3]; replicate 2, read-out: Inh % 2
  inhibition at 0.00508 µM: -7.9%
  inhibition at 0.0152 µM: -7.1%
  inhibition at 0.0457 µM: -13.5%
  inhibition at 0.41 µM: -15.9%
  inhibition at 1.23 µM: -17.4%
  inhibition at 3.7 µM: -17.4%
  inhibition at 11.11 µM: -15.6%
  inhibition at 33.33 µM: 1.7%
  inhibition at 100 µM: 86.7%
[3]; MDA-MB-436, 72 h, CellTiter-Glo, read-out: MDA-MB-436 IC50
  IC50: 38.6 µM
[3]; MDA-MB-436, 72 h, supplement Summary sheet, read-out: IC50
  IC50: 38.6 µM
[3]; MDA-MB-436, curve fit list, no unit in the cell, concentration in uM, read-out: IC50
  IC50: 38.6 µM
[3]; MDA-MB-436, curve fit on Log (uM) concentrations
  LogIC50: ~ 1.587
[3]; MDA-MB-436, curve fit parameter (Inh %)
  Bottom: -11.35
[3]; MDA-MB-436, curve fit parameter (Inh %), '= 100.0' is a constrained value
  Top: 88
[4]; CAPAN-1, curve-fit output, Log (uM)
  LogIC50: 1.682
[4]; CAPAN-1, 72 h, CellTiter-Glo, read-out: CAPAN-1 IC50
  IC50: 48.1 µM
[4]; replicate 1, read-out: Inh % 1
  inhibition at 0.00508 µM: 3.5%
  inhibition at 0.0152 µM: 3.7%
  inhibition at 0.0457 µM: 2.3%
  inhibition at […]: 7.9%
  inhibition at 0.41 µM: 9.3%
  inhibition at 1.23 µM: -11.8%
  inhibition at 3.7 µM: 0.241%
  inhibition at 11.11 µM: 6%
  inhibition at 33.33 µM: 27.1%
  inhibition at 100 µM: 85.7%
[4]; replicate 2, read-out: Inh % 2
  inhibition at 0.00508 µM: -8.1%
  inhibition at 0.0152 µM: 5.2%
  inhibition at 0.0457 µM: -3.2%
  inhibition at […]: 5.4%
  inhibition at 0.41 µM: -5.7%
  inhibition at 1.23 µM: -10.7%
  inhibition at 3.7 µM: -0.2%
  inhibition at 11.11 µM: -3.5%
  inhibition at 33.33 µM: 18.7%
  inhibition at 100 µM: 75.3%
[4]; CAPAN-1, 72 h, supplement Summary sheet, read-out: IC50
  IC50: 48.1 µM
[4]; CAPAN-1, curve-fit output, concentrations in uM, read-out: IC50
  IC50: 48.1 µM
